# Publication PMC9305131, “Expanding the Repertoire of Low‐Molecular‐Weight Pentafluorosulfanyl‐Substituted Scaffolds” (Chemmedchem, 2022)
# Several values for one entry are separate records, joined by “and”; a condition that tells them apart may be missing. Identical values can stand only once. Entries after “also recorded” stand apart in the source; their conditions may differ. Like-named read-outs stand apart in the source and are kept apart here.
# Assays:
# HEK293T/17 cells = settings: for Cytostatic effect (in words): HEK293T/17 cells; for Cytostatic effect at concentrations above: 200–0.4 μM range
# human HDHODH = human HDHODH (Homo sapiens, UniProt Q02127); experiment: HDHODH inhibition, in vitro fluorescence‐based assays run by Reaction Biology; assay type: biochemical
# SARS‐CoV‐2 M^pro = biological target: T1, SARS‐CoV‐2 M^pro (Severe acute respiratory syndrome coronavirus 2, UniProt P0DTD1); experiment: M^Pro inhibition (fluorescence‐based turnover assay / dose response); assay type: biochemical; settings: enzyme inhibition; 17: fluorescence‐based turnover assay
# T1 construct: M^pro releases the functional polypeptides from the polyproteins by extensive proteolytic processing
# Pseudotyped SARS CoV2 = assay type: cell-based; settings: HEK293T/17 with ACE2 and TMPRSS2, 48 hours, toxic concentrations excluded, normalised data
# VEGFR2 = VEGFR2 (Homo sapiens, UniProt P35968); experiment: Biochemical kinase assay, VEGFR2; settings: for inhibition at 10 µM: read-out: Percent inhibition at 10 μM; for IC50: n=1, 10‐dose IC50 mode with twofold serial dilutions, starting at 10 μM
# Sequence of VEGFR2 (P35968 20-1356): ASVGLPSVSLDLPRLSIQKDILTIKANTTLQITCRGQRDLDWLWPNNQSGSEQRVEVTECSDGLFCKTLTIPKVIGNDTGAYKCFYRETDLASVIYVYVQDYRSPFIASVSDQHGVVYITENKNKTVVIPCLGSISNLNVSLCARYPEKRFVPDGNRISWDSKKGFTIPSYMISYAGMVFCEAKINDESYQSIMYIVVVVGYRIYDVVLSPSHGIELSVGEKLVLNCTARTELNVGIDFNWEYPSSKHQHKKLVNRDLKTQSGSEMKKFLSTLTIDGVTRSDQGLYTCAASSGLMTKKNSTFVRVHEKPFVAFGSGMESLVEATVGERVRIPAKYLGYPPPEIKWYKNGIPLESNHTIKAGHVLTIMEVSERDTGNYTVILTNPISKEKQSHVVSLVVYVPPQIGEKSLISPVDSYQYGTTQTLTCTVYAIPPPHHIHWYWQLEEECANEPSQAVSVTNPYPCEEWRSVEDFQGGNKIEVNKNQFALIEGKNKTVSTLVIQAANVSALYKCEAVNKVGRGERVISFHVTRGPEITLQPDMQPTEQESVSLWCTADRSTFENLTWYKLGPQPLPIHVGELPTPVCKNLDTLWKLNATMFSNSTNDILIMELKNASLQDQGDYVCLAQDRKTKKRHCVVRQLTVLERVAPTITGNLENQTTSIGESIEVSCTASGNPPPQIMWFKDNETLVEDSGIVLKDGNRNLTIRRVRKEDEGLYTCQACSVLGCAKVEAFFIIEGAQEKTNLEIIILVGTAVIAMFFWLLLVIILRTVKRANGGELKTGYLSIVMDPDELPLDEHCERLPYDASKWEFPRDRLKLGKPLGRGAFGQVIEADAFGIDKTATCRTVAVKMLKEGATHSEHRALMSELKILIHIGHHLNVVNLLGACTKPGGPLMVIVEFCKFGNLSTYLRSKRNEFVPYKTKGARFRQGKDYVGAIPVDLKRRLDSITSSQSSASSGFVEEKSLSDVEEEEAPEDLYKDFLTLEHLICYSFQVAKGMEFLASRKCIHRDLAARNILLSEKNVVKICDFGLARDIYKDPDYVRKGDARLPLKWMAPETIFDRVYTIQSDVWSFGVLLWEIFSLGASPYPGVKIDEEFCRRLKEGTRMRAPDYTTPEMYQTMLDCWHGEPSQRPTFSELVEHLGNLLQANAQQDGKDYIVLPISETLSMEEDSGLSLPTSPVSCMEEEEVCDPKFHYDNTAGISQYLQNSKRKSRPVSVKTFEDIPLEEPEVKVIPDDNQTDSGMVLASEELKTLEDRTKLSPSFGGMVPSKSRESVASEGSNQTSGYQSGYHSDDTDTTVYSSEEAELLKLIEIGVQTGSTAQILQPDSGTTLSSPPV
# Sequence of human HDHODH (Q02127 whole entry): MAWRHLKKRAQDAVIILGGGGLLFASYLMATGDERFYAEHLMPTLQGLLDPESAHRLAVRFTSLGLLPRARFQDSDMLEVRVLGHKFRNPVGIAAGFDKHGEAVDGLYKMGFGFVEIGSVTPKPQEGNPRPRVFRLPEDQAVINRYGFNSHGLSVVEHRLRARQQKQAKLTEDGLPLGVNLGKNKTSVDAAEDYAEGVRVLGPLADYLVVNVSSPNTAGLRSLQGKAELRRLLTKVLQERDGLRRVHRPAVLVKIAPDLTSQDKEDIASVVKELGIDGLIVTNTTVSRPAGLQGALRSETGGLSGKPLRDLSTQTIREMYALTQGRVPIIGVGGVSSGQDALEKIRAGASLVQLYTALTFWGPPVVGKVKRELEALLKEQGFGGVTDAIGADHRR
smiles,measurement,setting,value
"O=C(c1cccc(S(F)(F)(F)(F)F)c1)N1CCOCC1 [3 c, [3‐(Pentafluoro‐λ^6‐sulfanyl)phenyl](morpholino)methanone]",melting point,,63 to 64 °C
"O=C1Nc2ccc(S(F)(F)(F)(F)F)cc2C12CCOCC2 [11 a, 5‐(Pentafluoro‐λ^6‐sulfanyl)‐1,2‐dihydrospiro[indole‐3,4′‐ oxan]‐2‐one]",melting point,,247 to 249 °C
"CS(=O)(=O)N1CCN(C(=O)c2cccc(S(F)(F)(F)(F)F)c2)CC1 [3 f, (3‐Pentafluoro‐λ^6‐sulfanyl phenyl)(4‐(methylsulfonyl)piperazin‐1‐yl)methanone]",melting point,,159 to 160 °C
N#C/C(C(=O)Nc1ccc(F)cc1)=C(/O)c1ccc(Cl)cc1 [compound 17],Cells healthy up to,"HEK293T/17 cells; HEK293T/17, MTS, 48 hours",up to 50 μM
same,Cytostatic effect (in words),HEK293T/17 cells,less cytostatic
same,Activity versus HDHODH (in words),human HDHODH,inactive; also recorded: no affinity
same,inhibition at 10 µM,"human HDHODH; HDHODH, 10 μM, read-out: Percent inhibition at 10 μM",< 10%
same,IC50,SARS‐CoV‐2 M^pro,230 nM
same,Effect on SARS‐CoV‐2 infection of target cells (in words),Pseudotyped SARS CoV2,enhancing effect
"Cc1cc(C)c(/C=C2\C(=O)Nc3cc(S(F)(F)(F)(F)F)ccc32)[nH]1 [9 a, (3Z)‐3‐[(3,5‐Dimethyl‐1H‐pyrrol‐2‐yl)methylidene]‐6‐(pentafluoro‐λ^6‐sulfanyl)‐2,3‐dihydro‐1H‐indol‐2‐one]",melting point,,199 to 201 °C
same,inhibition at 10 µM,VEGFR2,23%
same,IC50,VEGFR2,did not manifest sufficient inhibition to generate IC50 values
"O=C(c1cccc(S(F)(F)(F)(F)F)c1)N1CCCCC1 [3 a, [3‐(Pentafluoro‐λ^6‐sulfanyl)phenyl](piperidin‐1‐yl)methanone]",melting point,,88 to 90 °C
"Cc1cc(C)c(/C=C2\C(=O)Nc3ccc(S(F)(F)(F)(F)F)cc32)[nH]1 [8 a, (3Z)‐3‐[(3,5‐Dimethyl‐1H‐pyrrol‐2‐yl)methylidene]‐5‐(pentafluoro‐λ^6‐sulfanyl)‐2,3‐dihydro‐1H‐indol‐2‐ one]",melting point,,203 to 205 °C
same,inhibition at 10 µM,VEGFR2,27%
same,IC50,VEGFR2,did not manifest sufficient inhibition to generate IC50 values
"CC(C)=C1C(=O)Nc2ccc(S(F)(F)(F)(F)F)cc21 [8 b, 5‐(Pentafluoro‐λ^6‐sulfanyl)‐3‐(propan‐2‐ylidene)‐2,3‐dihydro‐1H‐indol‐2‐one]",melting point,,191 to 194 °C
"Cc1oncc1C(=O)Nc1ccc(S(F)(F)(F)(F)F)cc1 [compound 15, 5‐Methyl‐N‐[4‐(pentafluoro‐λ^6‐sulfanyl)phenyl]‐1,2‐oxazole‐ 4‐carboxamide]",melting point,,167 to 168 °C
same,Cytostatic effect (in words),HEK293T/17 cells,cytostatic
same,IC50,"human HDHODH; IC50, HDHODH inhibition",365 nM
same,Effect on SARS‐CoV‐2 infection of target cells (in words),Pseudotyped SARS CoV2,satisfactory inhibition of SARS‐CoV‐2 infection
"CN1C(=O)C2(CCOCC2)c2cc(S(F)(F)(F)(F)F)ccc21 [11 b, 1‐Methyl‐5‐(pentafluoro‐λ^6‐sulfanyl)‐1,2‐dihydrospiro[indole‐ 3,4′‐oxan]‐2‐one]",melting point,,158 °C
"C/C(O)=C(\C#N)C(=O)Nc1ccc(C(F)(F)F)cc1 [Teriflunomide, reference compound]",Cytostatic effect at concentrations above,"HEK293T/17 cells; HEK293T/17, MTS, 48 hours",above 0.78 μM
same,Cytostatic effect (in words),HEK293T/17 cells,cytostatic
same,Cytostatic effect (in words),HEK293T/17 cells; listed as teriflunomide,strong cytostatic
same,Effect on SARS‐CoV‐2 infection of target cells (in words),Pseudotyped SARS CoV2; listed as teriflunomide,no effect
"C/C(O)=C(\C#N)C(=O)Nc1ccc(S(F)(F)(F)(F)F)cc1 [compound 16, (2Z)‐2‐Cyano‐3‐hydroxy‐N‐[4‐(pentafluoro‐λ^6‐sulfanyl)phenyl] but‐2‐enamide]",melting point,,167 to 170 °C
same,Cytostatic effect at concentrations above,"HEK293T/17 cells; HEK293T/17, MTS, 48 hours",> 3.1 µM
same,Cytostatic effect (in words),HEK293T/17 cells,cytostatic
same,Cytostatic effect (in words),HEK293T/17 cells; listed as SF5-teriflunomide,strong cytostatic
same,IC50,"human HDHODH; IC50, HDHODH inhibition",27 nM
same,IC50,"human HDHODH; IC50, individual determinations behind the mean (n=2), HDHODH inhibition",29 nM and 25 nM
same,Activity/affinity towards HDHODH compared with Teriflunomide,"human HDHODH; relative to Teriflunomide, listed as SF5‐Teriflunomide",approximately twice as active; also recorded: approximately two‐fold greater affinity
same,Effect on SARS‐CoV‐2 infection of target cells (in words),Pseudotyped SARS CoV2; listed as SF5-teriflunomide,no effect
